# Test results taken from article PMC6897379 (Clinical cancer research : an official journal of the …, 2019).
# Read-outs that look alike come from different tables or passages of the source.
# Key:
# [1] = Toxicity versus germline AURKA genotype; assay type: in vivo, human
# [2] = adults; twice daily for 7 days; DLT neutropenia and stomatitis; cited from earlier work
# [3] = tested on: relapsed or refractory solid tumors; conditions: cited from earlier work
# [4] = tested on: relapsed/refractory solid tumors or acute leukemia; experiment: Phase 2 trial; assay type: in vivo, human
# ALL-19 xenograft = experiment: ALL-19 xenograft, comparison of dosing schedules; assay type: in vivo, NOD/SCID mice
# [5] = Phase 2 trial toxicity monitoring; assay type: in vivo, human
# [6] = children, cited from earlier work
# [7] = cited from earlier work
# NBL xenografts = conditions: PPTP; cited from earlier work
# ALL-8 xenograft = experiment: ALL-8 xenograft, comparison of dosing schedules; assay type: in vivo, NOD/SCID mice
# [8] = tested on: p53-wildtype, therapy-refractory NBL cell lines; conditions: cited from earlier work
# [9] = Plasma pharmacokinetics in children and adolescents, with UGT1A1 phenotype; assay type: in vivo, human; conditions: for concentration at 4 day: 80 mg/m^2, Alisertib Cmin Median (range), day 4, I/E, I, P
# [10] = mice receiving 10 mg/kg; cited from earlier work
# [11] = tested on: pediatric solid tumor models; conditions: cited from earlier work
# [12] = tested on: atypical teratoid rhabdoid (ATRT) cell lines; conditions: ATRT cell lines that overexpress AAK with SMARCB1 mutations; cited from earlier work
# ALL xenografts = conditions: PPTP; cited from earlier work
# [13] = Acute Lymphoblastic Leukemia, 10 response evaluable
# [14] = Ewing Sarcoma, 10 response evaluable
# [15] = Germ Cell Tumor, 7 response evaluable
# [16] = Hepatoblastoma, 8 response evaluable
# [17] = Neuroblastoma (MIBG Evaluable), 24 response evaluable
# [18] = Neuroblastoma (Measurable), 24 response evaluable
# [19] = Non-Rhabdo Soft Tissue Sarcoma, 10 response evaluable
# [20] = Osteosarcoma, 10 response evaluable
# [21] = Rhabdoid Tumors, 4 response evaluable
# [22] = Rhabdomyosarcoma, 10 response evaluable
# [23] = Total, all strata, 137 response evaluable
# [24] = Wilms tumor, 10 response evaluable
# [25] = Schedule A, 10.4 mg/kg oral gavage twice daily × 7 days
# [26] = Schedule A, twice daily × 7 days
# [27] = Schedule B, 10.4 mg/kg oral gavage twice daily × 5 days × 3 weeks
# [28] = Schedule B, twice daily × 5 days × 3 weeks
# [29] = human, in vivo, 1 cycle (21 days)
# [30] = adults, 50 mg enteric coated tablets
# [31] = population PK model, 363 adults, 7 single agent trials
smiles,measurement,setting,value
"COc1cc(Nc2ncc3c(n2)-c2ccc(Cl)cc2C(c2c(F)cccc2OC)=NC3)ccc1C(=O)O [alisertib, Alisertib]",Cycle 1 DLT No,[1]; AURKA 91 A>T VV,8
same,Grade 2+ Toxicity Yes,[1]; AURKA 91 A>T VV,8
same,Cycle 1 DLT Yes,[1]; AURKA 91 A>T WV,5
same,Grade 2+ Toxicity No,[1]; AURKA 91 A>T WV,5
same,Cycle 1 DLT Yes,[1]; AURKA 91 A>T WW,8
same,Grade 2+ Toxicity No,[1]; AURKA 91 A>T WW,9
same,Cycle 1 DLT No,[1]; AURKA 169G>A VV,2
same,Grade 2+ Toxicity No,[1]; AURKA 169G>A VV,1
same,Grade 2+ Toxicity Yes,[1]; AURKA 169G>A VV,1
same,Cycle 1 DLT No,[1]; AURKA 169G>A WV,18
same,Cycle 1 DLT Yes,[1]; AURKA 169G>A WV,3
same,Grade 2+ Toxicity No,[1]; AURKA 169G>A WV,4
same,Cycle 1 DLT Yes,[1]; AURKA 169G>A WW,10
same,Grade 2+ Toxicity No,[1]; AURKA 169G>A WW,9
same,Grade 2+ Toxicity Yes,[1]; AURKA 169G>A WW,54
same,Cycle 1 DLT No,[1]; AURKA Haplotype H1,25
same,Cycle 1 DLT Yes,[1]; AURKA Haplotype H1,5
same,Grade 2+ Toxicity No,[1]; AURKA Haplotype H1,4
same,Cycle 1 DLT Yes,[1]; AURKA Haplotype H2,8
same,Grade 2+ Toxicity No,[1]; AURKA Haplotype H2,10
same,Cycle 1 DLT Yes,[1]; Total genotyped patients,13
same,Grade 2+ Toxicity No,[1]; Total genotyped patients,14
same,Recommended dose,[2],50 mg
same,Duration of stable disease,"[3]; 8 children, phase 1 trial",5–35 cycles
same,Children with stable disease,"[3]; NBL (n=4) and sarcoma (n=4), of 33 response evaluable children",8
same,Recommended phase 2 dose,"[3]; children and adolescents, orally, once daily for 7 days",80 mg/m^2
same,Children with a PR,"[3]; hepatoblastoma, of 33 response evaluable children",one
same,Non-responders,[4]; [13],1
same,Progressive Disease,[4]; [13],6
same,Stable Disease n patients,[4]; [13],3 n patients
same,Non-responders,"[4]; Acute Myeloid Leukemia, 10 response evaluable",10
same,Non-responders,[4]; [14],2
same,Progressive Disease,[4]; [14],5
same,Stable Disease n patients,[4]; [14],3 n patients
same,Non-responders,[4]; [15],1
same,Progressive Disease,[4]; [15],4
same,Stable Disease n patients,[4]; [15],2 n patients
same,Stable Disease cycles administered,[4]; Hepatoblastoma,5 cycles
same,Non-responders,[4]; [16],2
same,Progressive Disease,[4]; [16],4
same,Stable Disease n patients,[4]; [16],1 n patients
same,Stable Disease median (range) cycles administered,[4]; Neuroblastoma (MIBG Evaluable),13 (5–35) cycles
same,Non-responders,[4]; [17],4
same,Progressive Disease,[4]; [17],9
same,Stable Disease n patients,[4]; [17],9 n patients
same,Non-responders,[4]; [18],5
same,Progressive Disease,[4]; [18],16
same,Stable Disease n patients,[4]; [18],2 n patients
same,Stable Disease cycles administered,[4]; Non-Rhabdo Soft Tissue Sarcoma,5 cycles
same,Non-responders,[4]; [19],2
same,Progressive Disease,[4]; [19],7
same,Stable Disease n patients,[4]; [19],1 n patients
same,Responses in the other primary disease strata,"[4]; OS, EWS, RMS, ALL, AML",No responses
same,Non-responders,[4]; [20],2
same,Progressive Disease,[4]; [20],8
same,Non-responders,[4]; [21],1
same,Progressive Disease,[4]; [21],3
same,Stable Disease cycles administered,[4]; Rhabdomyosarcoma,15 cycles
same,Non-responders,[4]; [22],2
same,Progressive Disease,[4]; [22],7
same,Stable Disease n patients,[4]; [22],1 n patients
same,Non-responders,[4]; [23],33
same,Progressive Disease,[4]; [23],76
same,Stable Disease n patients,[4]; [23],23 n patients
same,Stable Disease cycles administered,[4]; Wilms tumor,31 cycles
same,Non-responders,[4]; [24],1
same,Progressive Disease,[4]; [24],7
same,Stable Disease n patients,[4]; [24],1 n patients
same,Objective responses observed,"[4]; all strata, 137 evaluable for response",Five
same,Objective response rate,[4]; children and adolescents receiving single agent alisertib,less than 5%
same,Median EFS Treated,ALL-19 xenograft; [25],13.6 days
same,Leukemia progression compared with controls,"ALL-19 xenograft; Schedule A, serial peripheral blood parameters",not significantly different from that of controls
same,EFS T-C,ALL-19 xenograft; [26],7.0 days
same,EFS T/C,ALL-19 xenograft; [26],2.0
same,Median Response Score,ALL-19 xenograft; [26],PD2
same,Median EFS Treated,ALL-19 xenograft; [27],31.2 days
same,EFS T-C,ALL-19 xenograft; [28],24.6 days
same,EFS T/C,ALL-19 xenograft; [28],4.7
same,Dehydration Grade 3,"[5]; alisertib related, all cycles (n=500)",6 (1.2%) n (%)
same,Patients with fatal adverse events possibly related to alisertib,[5]; during cycle 1,two
same,ALT increased Grade 3,"[5]; human, in vivo",17 (3.4%) n (%)
same,AST increased Grade 3,"[5]; human, in vivo",10 (2%) n (%)
same,Alisertib-related grade 3 or 4 anemia,"[5]; human, in vivo",13.6%
same,Alisertib-related grade 3 or 4 leukopenia,"[5]; human, in vivo",33%
same,Alisertib-related grade 3 or 4 lymphopenia,"[5]; human, in vivo",12.2%
same,Alisertib-related grade 3 or 4 neutropenia,"[5]; human, in vivo",51.8%
same,Alisertib-related grade 3 or 4 thrombocytopenia,"[5]; human, in vivo",20.8%
same,Anemia Grade 3,"[5]; human, in vivo",63 (12.6%) n (%)
same,Anemia Grade 4,"[5]; human, in vivo",5 (1%) n (%)
same,Anorexia Grade 3,"[5]; human, in vivo",1 (0.2%) n (%)
same,Depression Grade 4,"[5]; human, in vivo",1 (0.2%) n (%)
same,Diarrhea Grade 3,"[5]; human, in vivo",2 (0.4%) n (%)
same,Dizziness Grade 3,"[5]; human, in vivo",14 (2.8%) n (%)
same,Enterocolitis Grade 3,"[5]; human, in vivo",1 (0.2%) n (%)
same,Febrile neutropenia Grade 3,"[5]; human, in vivo",18 (3.6%) n (%)
same,GGT increased Grade 3,"[5]; human, in vivo",1 (0.2%) n (%)
same,Hepatic hemorrhage Grade 5,"[5]; human, in vivo",1 (0.2%) n (%)
same,Hyperbilirubinemia Grade 3,"[5]; human, in vivo",3 (0.6%) n (%)
same,Hypersomnia Grade 3,"[5]; human, in vivo",1 (0.2%) n (%)
same,Hyperuricemia Grade 4,"[5]; human, in vivo",1 (0.2%) n (%)
same,Hypoalbuminemia Grade 3,"[5]; human, in vivo",1 (0.2%) n (%)
same,Hypocalcemia Grade 3,"[5]; human, in vivo",1 (0.2%) n (%)
same,Hypokalemia Grade 3,"[5]; human, in vivo",4 (0.8%) n (%)
same,Hypokalemia Grade 4,"[5]; human, in vivo",1 (0.2%) n (%)
same,Hyponatremia Grade 3,"[5]; human, in vivo",3 (0.6%) n (%)
same,Hypophosphatemia Grade 3,"[5]; human, in vivo",1 (0.2%) n (%)
same,INR increased Grade 3,"[5]; human, in vivo",1 (0.2%) n (%)
same,Infection Grade 3,"[5]; human, in vivo",1 (0.2%) n (%)
same,Leukopenia Grade 3,"[5]; human, in vivo",117 (23.4%) n (%)
same,Leukopenia Grade 4,"[5]; human, in vivo",48 (9.6%) n (%)
same,Lymphopenia Grade 3,"[5]; human, in vivo",47 (9.4%) n (%)
same,Lymphopenia Grade 4,"[5]; human, in vivo",14 (2.8%) n (%)
same,Nausea Grade 3,"[5]; human, in vivo",2 (0.4%) n (%)
same,Neutropenia Grade 3,"[5]; human, in vivo",124 (24.8%) n (%)
same,Neutropenia Grade 4,"[5]; human, in vivo",137 (27.4%) n (%)
same,Oral mucositis Grade 3,"[5]; human, in vivo",19 (3.8%) n (%)
same,Palmar-plantar erythrodysesthesia Grade 3,"[5]; human, in vivo",2 (0.4%) n (%)
same,Photophobia Grade 3,"[5]; human, in vivo",1 (0.2%) n (%)
same,Pneumonia Grade 3,"[5]; human, in vivo",1 (0.2%) n (%)
same,Respiratory failure Grade 5,"[5]; human, in vivo",1 (0.2%) n (%)
same,Serum amylase increased Grade 3,"[5]; human, in vivo",1 (0.2%) n (%)
same,Thrombocytopenia Grade 3,"[5]; human, in vivo",54 (10.8%) n (%)
same,Thrombocytopenia Grade 4,"[5]; human, in vivo",50 (10%) n (%)
same,Tumor lysis syndrome Grade 4,"[5]; human, in vivo",1 (0.2%) n (%)
same,Urinary tract infection Grade 3,"[5]; human, in vivo",1 (0.2%) n (%)
same,Vomiting Grade 3,"[5]; human, in vivo",2 (0.4%) n (%)
same,Patients who experienced dose limiting toxicity,[5]; [29],18 patients
same,"Patients who experienced dose limiting toxicity, percent",[5]; [29],13%
same,Oral pain Grade 3,"[5]; human, in vivo, po",5 (1%) n (%)
same,Most frequent toxicity,[5]; in vivo,myelosuppression
same,Trough 24 hours after the first dose,[6]; 80 mg/m^2 dose level,1.1 µM
same,Cmax,[6]; recommended dose 80 mg/m^2,7500 ± 100 nM
same,Area under concentration time curve (AUC),[7]; [30],20.9 µM·h
same,Steady state trough concentration (Cmin),[7]; [30],exceeding 1 μM
same,AUC0–24 h,[7]; patients receiving 50 mg BID,40 µM·h
same,Cmax,[7]; patients receiving 50 mg BID,1300 nM
same,Apparent clearance (CL/F),[7]; [31],4.25 L/h
same,Terminal half-life,[7]; [31],19.3 h
same,Average trough concentrations,[7]; recommended phase 2 dose of 50 mg BID for 7 days,exceeded 1 μM
same,Xenografts with maintained complete responses,NBL xenografts,3 of 7
same,Objective response,ALL-8 xenograft; Schedule A and Schedule B,neither of the treatment schedules induced an objective response
same,Median EFS Treated,ALL-8 xenograft; [25],19.8 days
same,EFS T-C,ALL-8 xenograft; [26],10.9 days
same,EFS T/C,ALL-8 xenograft; [26],2.2
same,Median EFS Treated,ALL-8 xenograft; [27],31.9 days
same,EFS T-C,ALL-8 xenograft; [28],23.0 days
same,EFS T/C,ALL-8 xenograft; [28],3.6
same,"Human cells in the bone marrow, lowest levels achieved",ALL-8 xenograft; both alisertib schedules,approximately 20%
same,"Human cells in the spleen, lowest levels achieved",ALL-8 xenograft; both alisertib schedules,5–10%
same,"Additional delay of leukemia progression, Schedule B compared with Schedule A",ALL-8 xenograft; p=0.004,12.1 days
same,Activity in cell lines,[8],active
same,Patients exceeding the 1 μM target trough concentration on day 4,[9]; 26/39 patients,67%
same,Difference in population mean trough concentrations,"[9]; IM/PM versus EM, p 0.0091",1.05 µM
same,Patients with Cmin exceeding 1μM on day 7,"[9]; human, in vivo, 7 day",41%
same,concentration at 4 day,"[9]; human, plasma, oral, Grade ≥ 2: Yes (n=8)",1800 nM
same,concentration at 4 day,"[9]; human, plasma, oral, Grade ≥ 2, No (n=8)",2220 nM
same,concentration at 7 day,"[9]; human, plasma, oral, 80 mg/m^2, Median Cmin on day 7, cycle 1",900 nM
same,Difference in population mean trough concentrations,"[9]; with versus without ≥ grade 2 toxicities, not statistically significant",0.08 µM
same,12 h level,[10],1.2 µM
same,AUC0–24 h,[10],39 µM·h
same,Cmax,[10],16000 nM
same,Event free survival,"[11]; Wilms tumor, rhabdomyosarcoma and osteosarcoma xenograft models",Statistically significant improvement
same,Solid tumor models with objective responses,[11]; pediatric xenograft models,80%
same,Effect on cell lines,[12],induce cell death and augment radiation sensitivity
same,Xenografts with maintained complete responses,ALL xenografts,6 out of 6
